Test systems include 786-0 renal; ACHN renal; RPMI-8226 leukemia; SK-MEL-28 melanoma; T-47D breast; UACC-257 melanoma; HCT-15 colon; HOP-62 NSCLC; OVCAR-3 ovarian; SF-539 CNS.
Assay in all cases: NCI anticancer screen, dose series, 48 h

Each structure is given as a SMILES string. Several values for one entry are separate records, joined by “and”; a condition that tells them apart may be missing. Equal values may be shown once.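 48-hour exposure; five concentrations; linearly interpolated endpoints. Abbreviation: GI50, concentration required for 50% inhibition of growth. TGI: total growth inhibition.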

The results in this text go back to PubChem BioAssay (NCI).

As to `COc1ccc2c(c1)C(=O)c1c-2n(CCCN=[N+]=[N-])c(=O)c2cc([N+](=O)[O-])ccc12`, the TGI in the test on 786-0 renal is 0.708 µM; in the test on RPMI-8226 leukemia, 0.264 µM and 1.35 µM; in the test on SK-MEL-28 melanoma, above 100 µM; in the test with T-47D breast, above 100 µM; in the test with UACC-257 melanoma, above 100 µM. The GI50 was 0.0443 µM in the test on ACHN renal; 0.0128 µM and 0.0101 µM in the test with RPMI-8226 leukemia; 15.1 µM in the test with SK-MEL-28 melanoma; 1.57 µM with T-47D breast.
Take `O=C(N/N=C\c1ccc(N(CCCl)CCCl)cc1)c1cccnc1`: the GI50 in the test on ACHN renal was 31.6 µM; in the test on HCT-15 colon, 37.1 µM; in the test with HOP-62 NSCLC, 31.5 µM; in the test on OVCAR-3 ovarian, 30.5 µM; in the test with RPMI-8226 leukemia it was 44.8 µM; in the test with SF-539 CNS, 29.3 µM. Further, the figures for the GI50 in the test on SK-MEL-28 melanoma, with T-47D breast and in the test on UACC-257 melanoma were above 100 µM, 26.5 µM and 60.6 µM, respectively. Besides, the TGI in the test with ACHN renal, in the test on HCT-15 colon, in the test with HOP-62 NSCLC, in the test with OVCAR-3 ovarian, in the test with RPMI-8226 leukemia and in the test on SF-539 CNS was above 100 µM in each case. Besides, the TGI with SK-MEL-28 melanoma, in the test on T-47D breast and in the test on UACC-257 melanoma was above 100 µM in each case.
With `N/C(=C\c1ccc(/C=C(\NC(=O)c2ccccc2)c2nc3c([nH]2)C(=O)c2ccccc2C3=O)cc1)c1nc2c([nH]1)C(=O)c1ccccc1C2=O`, the TGI in the test with ACHN renal was found to be 52.6 µM; in the test with HCT-15 colon it was 37.7 µM; with OVCAR-3 ovarian it was 57.3 µM; with RPMI-8226 leukemia, 26.1 µM; in the test on SF-539 CNS, 30.2 µM; with SK-MEL-28 melanoma, 31.3 µM. In the test on UACC-257 melanoma, this compound came in with a TGI of 36.2 µM.
In the case of `CN(CCO)CCC1COc2ccccc2O1` (stereo not drawn), the TGI with ACHN renal, in the test on HCT-15 colon, with HOP-62 NSCLC, in the test on OVCAR-3 ovarian, in the test with RPMI-8226 leukemia and with SF-539 CNS was above 10 µM each time. In addition, the TGI in the test on SK-MEL-28 melanoma and in the test on T-47D breast was above 10 µM throughout.
Take `N#CC1(C#N)C(=O)c2ccncc2C1=O`: the TGI in the test with ACHN renal, with HCT-15 colon, with OVCAR-3 ovarian, in the test on RPMI-8226 leukemia, in the test with SF-539 CNS and with SK-MEL-28 melanoma was above 100 µM each time. The TGI in the test on T-47D breast and in the test on UACC-257 melanoma was above 100 µM each time.
Regarding `N#C[S-].[Ce+3].c1ccc(-c2ccccn2)nc1.c1ccc(-c2ccccn2)nc1.c1ccc(-c2ccccn2)nc1`, the GI50 with HCT-15 colon was 5.18 µM; in the test with OVCAR-3 ovarian, 43.1 µM; with SF-539 CNS, 27.3 µM; in the test on SK-MEL-28 melanoma, 15.3 µM; in the test on UACC-257 melanoma, 21.4 µM. For the same compound, the TGI is above 100 µM in the test with HCT-15 colon; above 100 µM in the test with OVCAR-3 ovarian; above 100 µM with SF-539 CNS; above 100 µM with SK-MEL-28 melanoma; 64.1 µM in the test on UACC-257 melanoma.
Turning to `CCOC(=O)NC(=O)c1cn(CCN(CCO)C(=O)NCCCCCCNC(=O)N(CCO)CCn2cc(C(=O)NC(=O)OCC)c(=O)[nH]c2=O)c(=O)[nH]c1=O`, the TGI in the test on HCT-15 colon, with HOP-62 NSCLC, in the test with OVCAR-3 ovarian, in the test on RPMI-8226 leukemia, in the test on SF-539 CNS and with SK-MEL-28 melanoma was above 100 µM throughout. The compound also came in with a TGI in the test with UACC-257 melanoma above 100 µM.
For `Brc1ccc2nc(-c3cccs3)nc(N3CCN(c4ccccc4)CC3)c2c1`, the TGI in the test with 786-0 renal, in the test on ACHN renal, in the test with HCT-15 colon, in the test with HOP-62 NSCLC, in the test on OVCAR-3 ovarian and in the test on RPMI-8226 leukemia was above 100 µM throughout. For the same compound, the TGI in the test on SF-539 CNS, in the test on SK-MEL-28 melanoma, in the test with T-47D breast and in the test on UACC-257 melanoma was above 100 µM each time.
For the compound `COc1nc2ccc(Cl)c(C(O)c3ccccc3)c2nc1OC` (stereo not drawn), the TGI was above 100 µM in the test with ACHN renal; 50.1 µM in the test on HCT-15 colon; 38.6 µM in the test on HOP-62 NSCLC; 69.6 µM in the test with OVCAR-3 ovarian; 34.1 µM in the test with RPMI-8226 leukemia; 32.8 µM in the test with SF-539 CNS. Besides, the TGI in the test with SK-MEL-28 melanoma was above 100 µM; in the test with T-47D breast, 99.4 µM; with UACC-257 melanoma, 59.2 µM.
With `COC(Cc1cc(C(O)(c2ccc(C(C)(C)C)cc2)c2cc(CC(OC)(c3cc(C(OC)(c4ccc(C(C)(C)C)cc4)c4ccc(C(C)(C)C)cc4)c(C)cc3C)c3cc(C(OC)(c4ccc(C(C)(C)C)cc4)c4ccc(C(C)(C)C)cc4)c(C)cc3C)c(C)cc2C)c(C)cc1C)(c1cc(C(OC)(c2ccc(C(C)(C)C)cc2)c2ccc(C(C)(C)C)cc2)c(C)cc1C)c1cc(C(OC)(c2ccc(C(C)(C)C)cc2)c2ccc(C(C)(C)C)cc2)c(C)cc1C`, the TGI with HCT-15 colon, with HOP-62 NSCLC, in the test on OVCAR-3 ovarian, with SF-539 CNS, with SK-MEL-28 melanoma and in the test with T-47D breast was above 75 µM each time. Further, the TGI with UACC-257 melanoma was above 75 µM.
For the compound `COc1c(O)cc2c(c1O)C(=O)C(Cc1ccc(O)cc1)CO2` (stereo not drawn), the TGI with 786-0 renal, in the test on ACHN renal, in the test on HCT-15 colon, in the test on HOP-62 NSCLC, with OVCAR-3 ovarian and in the test on RPMI-8226 leukemia was above 100 µM each time. Also, the TGI in the test with SF-539 CNS, in the test on SK-MEL-28 melanoma, in the test with T-47D breast and with UACC-257 melanoma was above 100 µM throughout.
In the case of `CC1=C/C(=N\NS(=O)(=O)c2ccc([N+](=O)[O-])cc2)CC(C)(C)C1`, the TGI in the test with 786-0 renal, with ACHN renal, with HCT-15 colon, with HOP-62 NSCLC, in the test with OVCAR-3 ovarian and with RPMI-8226 leukemia was above 100 µM throughout. The TGI in the test with SF-539 CNS, in the test with SK-MEL-28 melanoma, in the test on T-47D breast and in the test with UACC-257 melanoma was above 100 µM in each case.
